A short description of test [1]: ABTS free radical scavenging assay. An excerpt:
Antioxidant activity. As mentioned before, oxidative stress is one of the components of AD pathomechanism and is characterised by an imbalance in the production of ROS. One of the mechanisms by which antioxidants reduce the concentration of ROS and therefore prevent or slow the cell damage caused by free radicals is scavenging them. Thus, we tested the scavenging ability of compounds 12–19 in the spectrophotometric ABTS assay that we used before. In this assay, the ability of compounds to scavenge ABTS^• radicals, which are generated from 2,2’-azino-bis(3-ethylbenzothiazoline-6-sulphonic acid) (ABTS), is measured. We tested the compounds at three concentrations: 30, 75 and 150 μM after 5, 30 and 60 min of incubation using Trolox, a water-soluble vitamin E analogue, as a reference (Table S1 in Supporting information).
The spectrophotometric ABTS assay was performed in 96-well microplates with the reagents purchased from Sigma-Aldrich (Steinheim, Germany) according to the previously described procedure. Stock solutions of the tested compounds (6.4 mM) and reagents were prepared in DMSO and water, respectively. 2,2′-Azino-bis(3-ethylbenzothiazoline-6-sulfonic acid) free radical (ABTS^•) was prepared by mixing the stock solution of ABTS (7 mM) and […] (2.45 mM) in ratio 1:1. The mixture was kept in the dark at 4 °C for 16 h. The obtained solution of (ABTS^•) was diluted with water 20 times. Then, the test compound or water or mixture of DMSO/water in the appropriate ratio (0.02 mL) was added to ABTS^• solution (0.18 mL). The three concentrations of the test compounds and Trolox were tested in triplicate: 0.15, 0.075 and 0.03 mM. Changes in absorbance were measured at 734 nm after 5, 30 and 60 min, using a microplate reader (SPECTROstar Nano; BMG Labtech, Ortenberg, Germany). Based on the equation ((A0 − A)/A0) × 100% (where A0 and A were the absorbances without and with the test compound, respectively) the percentage of free radical scavenging activity was calculated. The results are presented as mean ± SD.

In test [2] the target is T1, human recombinant AChE (hAChE) (Homo sapiens, UniProt P22303).
T1 construct: purchased Sigma-Aldrich (Steinheim, Germany)
T1 sequence (P22303 32-614): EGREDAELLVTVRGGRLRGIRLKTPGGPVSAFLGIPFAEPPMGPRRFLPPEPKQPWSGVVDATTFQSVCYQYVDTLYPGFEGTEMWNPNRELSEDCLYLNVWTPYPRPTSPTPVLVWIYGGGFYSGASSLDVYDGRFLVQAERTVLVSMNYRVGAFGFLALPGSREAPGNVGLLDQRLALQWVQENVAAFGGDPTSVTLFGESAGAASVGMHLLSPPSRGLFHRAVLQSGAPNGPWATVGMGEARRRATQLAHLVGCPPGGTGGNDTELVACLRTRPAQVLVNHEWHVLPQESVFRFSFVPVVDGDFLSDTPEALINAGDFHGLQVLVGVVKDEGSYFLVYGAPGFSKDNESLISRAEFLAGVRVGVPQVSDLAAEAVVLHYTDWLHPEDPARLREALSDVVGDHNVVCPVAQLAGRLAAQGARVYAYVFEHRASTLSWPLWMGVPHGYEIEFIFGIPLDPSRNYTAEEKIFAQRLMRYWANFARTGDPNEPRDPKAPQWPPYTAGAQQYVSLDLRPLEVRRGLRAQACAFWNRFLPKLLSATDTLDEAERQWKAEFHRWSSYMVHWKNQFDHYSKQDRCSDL
Description: biochemical. To be noted: mean ± SEM of at least three experiments. The procedure:
(§1) 5-HT6R binding affinity and cholinesterase (AChE/BuChE) inhibitory activity. […] Their affinities for recombinant human 5-HT6 receptors (h5-HT6R) were tested in a radioligand binding assay and the inhibitory potencies against human recombinant AChE (hAChE) and BuChE isolated from human plasma (hBuChE) in the spectrophotometric Ellman’s assay.
(§2) The assay was based on spectrophotometric Ellman’s method and was performed in 96-well microplates with the reagents purchased from Sigma-Aldrich (Steinheim, Germany) according to the previously described procedure. hBuChE was kindly donated by Vivonics (Bedford, MA, USA). […] After 5 minutes of the enzymatic reaction, the changes in absorbance were measured at 412 nm, using a microplate reader (SPECTROstar Nano; BMG Labtech, Ortenberg, Germany). First, compounds were tested at the screening concentration of 10 µM. Based on the equation 100 − (S/B) × 100 (where S and B were the respective enzyme activities with and without the test sample, respectively) the percentage inhibition of each enzyme for each compound was calculated. […] The IC50 values were calculated using nonlinear regression (GraphPad Prism 5; GraphPad Software, San Diego, CA, USA) by plotting the residual enzyme activities against the applied inhibitor concentration. […] All experiments were performed in triplicate.

In the next test the target is T2, human 5-HT6 receptor (Homo sapiens, UniProt P50406).
T2 construct: purchased PerkinElmer; host or cells: CHO-K1 cells, stably transfected (membrane preparation)
T2 sequence (P50406 whole entry): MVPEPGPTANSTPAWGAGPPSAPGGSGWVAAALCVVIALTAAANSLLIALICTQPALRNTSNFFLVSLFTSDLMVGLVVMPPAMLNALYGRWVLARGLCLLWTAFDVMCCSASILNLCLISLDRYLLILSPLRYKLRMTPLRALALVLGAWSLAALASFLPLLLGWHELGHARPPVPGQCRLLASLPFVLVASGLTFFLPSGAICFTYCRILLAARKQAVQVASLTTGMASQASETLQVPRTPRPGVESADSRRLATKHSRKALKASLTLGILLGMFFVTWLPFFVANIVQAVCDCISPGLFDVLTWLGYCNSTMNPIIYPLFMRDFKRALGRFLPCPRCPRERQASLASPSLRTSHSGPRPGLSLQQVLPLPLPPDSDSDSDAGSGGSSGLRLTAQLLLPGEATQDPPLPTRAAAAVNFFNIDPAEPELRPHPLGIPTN
The experiment in a line: 5-HT6 receptor radioligand binding assay ([3H]-LSD, CHO-K1 membranes). The procedure:
5-HT6R binding affinity and cholinesterase (AChE/BuChE) inhibitory activity. We evaluated the pharmacological properties of the final compounds 12–19 in vitro according to the previously described, well-established protocols. Their affinities for recombinant human 5-HT6 receptors (h5-HT6R) were tested in a radioligand binding assay and the inhibitory potencies against human recombinant AChE (hAChE) and BuChE isolated from human plasma (hBuChE) in the spectrophotometric Ellman’s assay. […].
We prepared 10 mM of stock solutions of tested compounds in DMSO. Serial dilutions of compounds were prepared in a 96-well microplate in assay buffers using the automated pipetting system epMotion 5070 (Eppendorf). Each compound was tested in 8 concentrations from 10^−5 to 10^−12 M (final concentration).
The radioligand binding assay was performed using membranes from CHO-K1 cells stably transfected with the human 5-HT6 receptor (PerkinElmer) according to the previously described procedure. All assays were carried out in duplicates. We prepared 50 µL working solution of the tested compounds, 50 µL [^3H]-LSD (final concentration 2.5 nM) and 150 µL diluted membranes (15 µg protein per well) in assay buffer (50 mM Tris, pH 7.4, 10 mM MgCl2, 0.1 mM EDTA) and transferred them to polypropylene 96-well microplates using a 96-well pipetting station Rainin Liquidator (MettlerToledo). Methiothepin (10 μM) was used to define nonspecific binding. The microplate was covered with sealing tape, mixed and incubated for 60 min at 27 °C. The reaction was terminated by rapid filtration through GF/B filter mate presoaked with 0.5% polyethyleneimine for 30 min. Ten rapid washes with 200 µL 50 mM Tris buffer (4 °C, pH 7.4) were performed using the automated harvester system Harvester-96 MACH III FM (Tomtec). The filter mates were dried at 37 °C in a forced air fan incubator and then solid scintillator MeltiLex was melted on filter mates at 90 °C for 5 min. Radioactivity was counted in MicroBeta2 scintillation counter (PerkinElmer). Data were fitted to a one-site curve-fitting equation with Prism 6 (GraphPad Software) and Ki values were estimated from the Cheng−Prusoff equation.

In test [3] the target is T3, BuChE isolated from human plasma (hBuChE) (Homo sapiens, UniProt P06276).
T3 construct: BuChE isolated from human plasma (hBuChE); tissue Vivonics (Bedford, MA, USA), donated; host or cells: human plasma
T3 sequence (P06276 29-602): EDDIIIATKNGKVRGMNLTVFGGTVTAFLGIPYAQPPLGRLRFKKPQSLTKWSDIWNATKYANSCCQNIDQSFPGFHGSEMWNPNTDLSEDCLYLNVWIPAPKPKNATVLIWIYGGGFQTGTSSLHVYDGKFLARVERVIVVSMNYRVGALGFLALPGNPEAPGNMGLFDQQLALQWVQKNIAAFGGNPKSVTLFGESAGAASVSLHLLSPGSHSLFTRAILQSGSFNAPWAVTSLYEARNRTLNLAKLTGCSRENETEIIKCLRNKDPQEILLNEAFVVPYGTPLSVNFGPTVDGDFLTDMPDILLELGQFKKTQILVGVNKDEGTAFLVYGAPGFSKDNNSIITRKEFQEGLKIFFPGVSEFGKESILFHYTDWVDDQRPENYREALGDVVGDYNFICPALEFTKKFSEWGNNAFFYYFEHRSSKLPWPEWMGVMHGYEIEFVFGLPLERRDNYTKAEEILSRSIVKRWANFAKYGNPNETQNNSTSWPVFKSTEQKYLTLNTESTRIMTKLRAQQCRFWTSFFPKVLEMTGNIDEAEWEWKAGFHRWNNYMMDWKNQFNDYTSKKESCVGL
Description: biochemical. Format: biochemical. To be noted: for IC50: mean ± SEM of at least three experiments. The procedure:
as §1, §2

These results are taken from paper PMC9409043, “Serotonin 5-HT6 Receptor Ligands and Butyrylcholinesterase Inhibitors Displaying Antioxidant Activity—Design, Synthesis and Biological Evaluation of Multifunctional Agents against Alzheimer’s Disease” (International Journal of Molecular Sciences, 2022).

“And” between values parts separate entries of the source, which are not always exact repeats. Equal entries are not always repeated.

What is called IC50 is the concentration that inhibits the measured activity by half. Usually Ki stands for a dissociation constant, usually derived from enzyme kinetics or from competition with a known ligand.

In the case of `O=c1[nH]c2c(OCCNCCC3CCN(Cc4ccccc4)CC3)cccc2n1Cc1ccccc1` [Compound 18, 1-Benzyl-4-(2-((2-(1-benzylpiperidin-4-yl)ethyl)amino)ethoxy)-1,3-dihydro-2H-benzo[d]imidazol-2-one], the “% of ABTS• reduction ± SD” value in test [1] (30 µM, 5 min) is 10±1%; in test [1] (30 µM, 30 min), 23±1%; in test [1] (30 µM, 60 min), 27±1%; in test [1] (75 µM, 5 min), 11±1%; in test [1] (75 µM, 30 min) it was 31±1%; in test [1] (75 µM, 60 min), 36±2%. In addition, the “% of ABTS• reduction ± SD” value is on record as 13±0% in test [1] (150 µM, 5 min); 33±0% in test [1] (150 µM, 30 min); 40±0% in test [1] (150 µM, 60 min). Also, the IC50 in test [2] was 2860 ± 68 nM; in test [3], 1160 ± 24 nM. The same compound yielded a Ki on human 5-HT6 receptor of 142 ± 20 nM.

In the case of `O=S(=O)(c1ccccc1)n1ccc2c(OCCNCCCC3CCN(Cc4ccccc4)CC3)cccc21` [Compound 14, 3-(1-Benzylpiperidin-4-yl)-N-(2-((1-(phenylsulfonyl)-1H-indol-4-yl)oxy)ethyl)propan-1-amine], the “% of ABTS• reduction ± SD” value is 5±3% in test [1] (30 µM, 5 min); 5±3% in test [1] (30 µM, 30 min); 6±3% in test [1] (30 µM, 60 min); 13±1% in test [1] (75 µM, 5 min); 18±0% in test [1] (75 µM, 30 min); 21±0% in test [1] (75 µM, 60 min). Moreover, the “% of ABTS• reduction ± SD” value in test [1] (150 µM, 5 min) was 20±0%; in test [1] (150 µM, 30 min), 29±0%; in test [1] (150 µM, 60 min) it was 35±0% and 35%. Besides, the IC50 is 930 ± 35 nM in test [2] and 16 ± 1 nM in test [3]. The same compound had a Ki at human 5-HT6 receptor of 22 ± 2 nM. For the same compound, in test [3] (hAChE IC50 vs. hBuChE IC50), the “fold higher potency against hBuChE than hAChE” value is recorded as 60 fold.

As for `O=S(=O)(c1ccccc1)N1CCc2c(OCCNCC3CCN(Cc4ccccc4)CC3)cccc21` [Compound 15, N-((1-Benzylpiperidin-4-yl)methyl)-2-((1-(phenylsulfonyl)indolin-4-yl)oxy)ethan-1-amine], the “% of ABTS• reduction ± SD” value came out at 10±0% in test [1] (30 µM, 5 min); 10±1% in test [1] (30 µM, 30 min); 11±0% in test [1] (30 µM, 60 min); 11±1% in test [1] (75 µM, 5 min); 13±1% in test [1] (75 µM, 30 min); 15±1% in test [1] (75 µM, 60 min). The “% of ABTS• reduction ± SD” value in test [1] (150 µM, 5 min) came to 19±1%; in test [1] (150 µM, 30 min) it was 29±1%; in test [1] (150 µM, 60 min), 36±4%. In addition, the figures for the IC50 in test [2] and in test [3] were 8210 ± 225 nM and 5410 ± 100 nM, respectively. Also, affinity at human 5-HT6 receptor was put at a Ki of 267 ± 9 nM.
